Values after ≈ are worked out from the molar mass of the structure shown. Where two headings read alike, the source gives them in different places.
Legend:
[1] = tested on: Bacillus subtilis (Bs); assay: Minimum inhibitory concentration (MIC) in nutrient agar; assay type: cell-based, Bacillus subtilis ATCC 8473; conditions: 30° C., 48 hours, read-out: Minimum Inhibitory Concentration, Bs
Description: (§1) The minimum inhibitory concentration (MIC) for the compounds listed in Table I is determined for 9 bacteria, using nutrient agar: and 7 yeast and fungi, using malt yeast agar. A one percent solution of the test compound is prepared in a mixture of acetone and water. Nutrient agar is prepared at pH 6.8, representing a neutral medium, and at pH 8.2, representing an alkaline medium. The nutrient agars are prepared by adding 23 g of nutrient agar to one-liter of deionized water. In addition, the alkaline medium is prepared by adjusting a 0.04M solution of N-[tris-(hydroxymethyl)methyl]-glycine buffered deionized water with concentrated sodium hydroxide to a pH of […]. Malt yeast agar is prepared by adding 3 g yeast extract and 45 g malt agar per liter of deionized water. The specific agar is dispensed in 30 ml aliquots into 25×200 mm test tubes, capped and autoclaved for 15 minutes at 115° C. The test tubes containing the agar are cooled in a water bath until the temperature of the agar is 48° C. Then, an appropriate amount of the one percent solution of the test compound is added (except in the controls where no compound is added) to the respective test tubes so that the final concentrations are 500, 250, 100, 50, 25, 10, 5, 2.5, 1.0 and zero parts per million of the test compound in the agar, thus having a known concentration of test compound dispersed therein. The contents of the test tubes are then transferred to respective petri plates. After drying for 24 hours, the petri plates containing nutrient agar are inoculated with bacteria and those containing malt yeast agar are inoculated with yeast and fungi.
(§2) The inoculation with bacteria is accomplished by using the following procedure. Twenty-four hour-cultures of each of the bacteria are prepared by incubating the respective bacteria in tubes containing nutrient broth for 24 hours at 30° C. in a shaker. Dilutions of each of the 24 hour-cultures are made so that nine separate suspensions (one for each of the nine test bacteria) are made, each containing 10^8 colony forming units (CFU) per ml of suspension of a particular bacteria. Aliquots of 0.3 ml of each of the bacterial suspensions are used to fill the individual wells of Steer's Replicator. For each microbial suspension, 0.3 ml was used to fill three wells (i.e., three wells of 0.3 ml each) so that for the nine different bacteria, 27 wells are filled. The Steer's Replicator is then used to inoculate both the neutral and alkaline pH nutrient agar petri plates.
(§3) The inoculated petri plates are incubated at 30° C. for 48 hours and then read to determine if the test compound which is incorporated into the agar prevented growth of the respective bacteria.
(§4) Table II lists the bacteria, yeast and fungi used in the MIC test described above along with their respective American Type Culture Collection (ATCC) identification numbers.

[2] = tested on: Enterobacter aerogenes (Ea); assay: as above; assay type: cell-based, Enterobacter aerogenes ATCC 13048; conditions: Klebsiella aerogenes, 48 h
Description: as §1, §2, §3, §4

[3] = tested on: Escherichia coli (Ec); assay: as above; assay type: cell-based, Escherichia coli ATCC 11229
Description: as §1, §2, §3, §4

[4] = tested on: Klebsiella pneumoniae (Kp); assay: as above; assay type: cell-based, Klebsiella pneumoniae ATCC 8308
Description: as §1, §2, §3, §4

[5] = tested on: Proteus vulgaris (Pv); assay: as above; assay type: cell-based, Proteus vulgaris ATCC 881
Description: as §1, §2, §3, §4

[6] = tested on: Pseudomonas aeruginosa (PRD-10); assay: as above; assay type: cell-based, Pseudomonas aeruginosa ATCC 15442; conditions: 48 h
Description: as §1, §2, §3, §4

[7] = tested on: Pseudomonas aeruginosa (Pa); assay: as above; assay type: cell-based, Pseudomonas aeruginosa ATCC 10145; conditions: 48 hours
Description: as §1, §2, §3, §4

[8] = tested on: Salmonella choleraesuis (Sc); assay: as above; assay type: cell-based, Salmonella choleraesuis ATCC 10708; conditions: Salmonella enterica
Description: as §1, §2, §3, §4

[9] = tested on: Staphylococcus aureus (Sa); assay: as above; assay type: cell-based, Staphylococcus aureus ATCC 6538; conditions: 30° C., 48 hours, read-out: Minimum Inhibitory Concentration, Sa
Description: as §1, §2, §3, §4

[10] = tested on: Aspergillus niger (An); assay: Minimum inhibitory concentration (MIC) in malt yeast agar; assay type: cell-based, Aspergillus niger ATCC 16404; conditions: malt yeast agar; 30° C.; 72 hours for fungi; read-out: Minimum Inhibitory Concentration, An
Description: as §1
(§5) The inoculation with the yeast and fungi is accomplished as follows. Cultures of yeast and fungi are incubated for seven days on malt yeast agar at 30° C. These cultures are used to prepare suspensions by the following procedure. A suspension of each organism is prepared by adding 10 ml of sterile saline and 10 microliters of octylphenoxy polyethoxy ethanol to the agar slant of yeast or fungi. The sterile saline/octylphenoxy polyethoxy ethanol solution is then agitated with a sterile swab to suspend the microorganism grown on the slant. Each resulting suspension is diluted into sterile saline (1 part suspension: 9 parts sterile saline). Aliquots of these dilutions are placed in individual wells of Steer's Replicator and petri plates inoculated as previously described. The petri plates are incubated at 30° C. and read after 48 hours for yeast and 72 hours for fungi.
as §4

[11] = tested on: Candida albicans (Ca); assay: as above; assay type: cell-based, Candida albicans ATCC 10231; conditions: malt yeast agar; 30° C.; 48 hours for yeast; read-out: Minimum Inhibitory Concentration, Ca
Description: as §1, §5, §4

[12] = tested on: Penicillium chrysogenum (Pc); assay: as above; assay type: cell-based, Penicillium chrysogenum ATCC 9480; conditions: read-out: Minimum Inhibitory Concentration, Pc
Description: as §1, §5, §4

[13] = tested on: Saccharomyces cerevisiae (Sc); assay: as above; assay type: cell-based, Saccharomyces cerevisiae ATCC 4105; conditions: read-out: Minimum Inhibitory Concentration, Sc
Description: as §1, §5, §4

[14] = tested on: Trichoderma viride (Tv); assay: as above; assay type: cell-based, Trichoderma viride ATCC 8678; conditions: read-out: Minimum Inhibitory Concentration, Tv
Description: as §1, §5, §4

[15] = tested on: Aureobasidium pullulan (Ap); assay: as above; assay type: cell-based, Aureobasidium pullulan ATCC 16622; conditions: malt yeast agar; 30° C.; 48 hours for yeast and 72 hours for fungi; read-out: Minimum Inhibitory Concentration, Ap
Description: as §1, §5, §4

[16] = tested on: Fusarium oxysporum (Fo); assay: as above; assay type: cell-based, Fusarium oxysporum ATCC 48112; conditions: read-out: Minimum Inhibitory Concentration, Fo
Description: as §1, §5, §4

[17] = pH 6.8, read-out: Minimum Inhibitory Concentration, Ea
[18] = pH 8.2, read-out: Minimum Inhibitory Concentration, Ea
[19] = 48 h, pH 6.8, read-out: Minimum Inhibitory Concentration, Ec
[20] = 48 h, pH 8.2, read-out: Minimum Inhibitory Concentration, Ec
[21] = 48 h, pH 8.2, read-out: Minimum Inhibitory Concentration, Kp
[22] = pH 6.8, nutrient agar, 30° C., 48 hours, read-out: Minimum Inhibitory Concentration, Kp
[23] = 48 h, pH 6.8, read-out: Minimum Inhibitory Concentration, Pv
[24] = 48 h, pH 8.2, read-out: Minimum Inhibitory Concentration, Pv
[25] = pH 6.8, read-out: Minimum Inhibitory Concentration, PRD
[26] = pH 8.2, read-out: Minimum Inhibitory Concentration, PRD
[27] = 48 h, pH 6.8, read-out: Minimum Inhibitory Concentration, Sc
[28] = 48 h, pH 8.2, read-out: Minimum Inhibitory Concentration, Sc
[29] = malt yeast agar, 30° C., 72 hours for fungi
[30] = malt yeast agar, 30° C., 48 hours for yeast

| Structure (SMILES) | MIC ([1]; pH 6.8, nutrient agar) | MIC ([1]; pH 8.2, nutrient agar) | MIC [2, 17] | MIC [2, 18] | MIC [3, 19] | MIC [3, 20] | MIC [4, 21] | MIC [4, 22] | MIC [5, 23] | MIC [5, 24] | MIC [6, 25] | MIC [6, 26] | MIC ([7]; pH 6.8, 30° C.) | MIC ([7]; pH 8.2, 30° C.) | MIC [8, 28] | MIC ([9]; pH 6.8, nutrient agar) | MIC ([9]; pH 8.2, nutrient agar) | MIC [10] | MIC [11] | MIC [15] | further results |
| --- | --- | --- | --- | --- | --- | --- | --- | --- | --- | --- | --- | --- | --- | --- | --- | --- | --- | --- | --- | --- | --- |
| N#CC1=C(C#N)Sc2nc3cc([N+](=O)[O-])c(Cl)cc3nc2S1 [G, 7-chloro-8-nitro-1,4-dithiino-(2,3-b)-quinoxaline-2,3-dicarbonitrile] | 250 mg/L (≈ 719 µM) | 100 mg/L (≈ 288 µM) | > 500 mg/L | > 500 mg/L | > 500 mg/L | > 500 mg/L | > 500 mg/L | 500 mg/L (≈ 1440 µM) | > 500 mg/L | > 500 mg/L | > 500 mg/L | > 500 mg/L | > 500 mg/L | > 500 mg/L | > 500 mg/L | 25 mg/L (≈ 71.9 µM) | 50 mg/L (≈ 144 µM) | 25 mg/L (≈ 71.9 µM) | 25 mg/L (≈ 71.9 µM) | 25 mg/L (≈ 71.9 µM) | MIC [8, 27]: > 500 mg/L; MIC ([12]; 72 h): 100 mg/L (≈ 288 µM); MIC ([13]; 48 h): 25 mg/L (≈ 71.9 µM); MIC ([14]; 72 h): 100 mg/L (≈ 288 µM); MIC ([16]; 72 h): 100 mg/L (≈ 288 µM) |
| N#CC1=C(C#N)Sc2nc3cc(C#N)ccc3nc2S1 [H, 7-cyano-1,4-dithiino-(2,3-b)-quinoxaline-2,3-dicarbonitrile] | < 10 mg/L | 50 mg/L (≈ 170 µM) | > 500 mg/L | > 500 mg/L | > 500 mg/L | > 500 mg/L | > 500 mg/L | 500 mg/L (≈ 1700 µM) | 500 mg/L (≈ 1700 µM) | > 500 mg/L | > 500 mg/L | > 500 mg/L | > 500 mg/L | > 500 mg/L | > 500 mg/L | 25 mg/L (≈ 85.2 µM) | 50 mg/L (≈ 170 µM) | 25 mg/L (≈ 85.2 µM) | 25 mg/L (≈ 85.2 µM) | < 10 mg/L | MIC [8, 27]: > 500 mg/L; MIC [12, 29]: < 10 mg/L; MIC [13, 30]: < 10 mg/L; MIC ([14]; 72 h): 100 mg/L (≈ 341 µM); MIC ([16]; 72 h): 50 mg/L (≈ 170 µM) |
| COC(=O)c1ccc2nc3c(nc2c1)SC(C#N)=C(C#N)S3 [I, 7-carbomethoxy-1,4-dithiino-(2,3-b)-quinoxaline-2,3-dicarbonitrile] | < 10 mg/L | 50 mg/L (≈ 153 µM) | > 500 mg/L | > 500 mg/L |  | > 500 mg/L | > 500 mg/L |  |  | > 500 mg/L | 500 mg/L (≈ 1530 µM) | > 500 mg/L | 500 mg/L (≈ 1530 µM) | > 500 mg/L | > 500 mg/L | 25 mg/L (≈ 76.6 µM) | 100 mg/L (≈ 306 µM) | < 10 mg/L | < 10 mg/L | < 10 mg/L | MIC ([3]; pH 6.8, nutrient agar, 30° C., 48 hours, read-out: Minimum Inhibitory Concentration, Ec): 100 mg/L (≈ 306 µM); MIC ([4]; 48 h, pH 6.8, read-out: Minimum Inhibitory Concentration, Kp): 50 mg/L (≈ 153 µM); MIC ([5]; pH 6.8, nutrient agar, 30° C., 48 hours, read-out: Minimum Inhibitory Concentration, Pv): 100 mg/L (≈ 306 µM); MIC ([8]; pH 6.8, nutrient agar, 30° C., 48 hours, read-out: Minimum Inhibitory Concentration, Sc): 100 mg/L (≈ 306 µM); MIC [12, 29]: < 10 mg/L; MIC [13, 30]: < 10 mg/L; MIC [14, 29]: 25 mg/L (≈ 76.6 µM); MIC [16, 29]: < 10 mg/L |
